In experiment [1] the target is Phospho-KIT (Tyr719) in GIST48 cells (Homo sapiens, UniProt P10721). Kind of experiment: GIST48 KIT Western Blot. It is filed as cell-based. To be noted: 4 hours, read-out: pKIT suppression by western blot analysi GIST48. Background: Immunoblotting shows a protein as a band on a membrane.
For experiment [2], the target named is T1, c-KIT D816H kinase (Seq ID no. 3) (Homo sapiens, UniProt P10721, D816H).
T1 construct: GST (N); TEV cleavage site (N); purchased deCODE Biostructures
T1 sequence (P10721 544-976 D816H): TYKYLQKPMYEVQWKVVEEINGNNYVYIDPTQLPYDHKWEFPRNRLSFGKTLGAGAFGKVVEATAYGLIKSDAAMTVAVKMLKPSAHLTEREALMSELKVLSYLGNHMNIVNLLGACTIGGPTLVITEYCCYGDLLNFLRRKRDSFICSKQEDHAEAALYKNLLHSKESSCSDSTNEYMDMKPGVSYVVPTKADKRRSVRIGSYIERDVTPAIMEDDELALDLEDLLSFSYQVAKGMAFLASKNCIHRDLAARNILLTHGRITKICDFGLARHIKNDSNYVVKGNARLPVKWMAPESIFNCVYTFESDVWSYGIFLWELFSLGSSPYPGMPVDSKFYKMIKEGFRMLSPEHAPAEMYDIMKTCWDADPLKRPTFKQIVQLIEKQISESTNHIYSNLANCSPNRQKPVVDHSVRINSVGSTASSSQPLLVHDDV
Kind of experiment: c-KIT D816H Kinase Assay. It is filed as biochemical. To be noted: enzymatic assay, ATP 200 μM.

The target of experiment [3] is T2, Phospho-KIT (Tyr719) in GIST882 cells (Homo sapiens, UniProt P10721, K642E).
T2 construct: endogenous in cells; host or cells: GIST882
T2 sequence (P10721 26-976 K642E): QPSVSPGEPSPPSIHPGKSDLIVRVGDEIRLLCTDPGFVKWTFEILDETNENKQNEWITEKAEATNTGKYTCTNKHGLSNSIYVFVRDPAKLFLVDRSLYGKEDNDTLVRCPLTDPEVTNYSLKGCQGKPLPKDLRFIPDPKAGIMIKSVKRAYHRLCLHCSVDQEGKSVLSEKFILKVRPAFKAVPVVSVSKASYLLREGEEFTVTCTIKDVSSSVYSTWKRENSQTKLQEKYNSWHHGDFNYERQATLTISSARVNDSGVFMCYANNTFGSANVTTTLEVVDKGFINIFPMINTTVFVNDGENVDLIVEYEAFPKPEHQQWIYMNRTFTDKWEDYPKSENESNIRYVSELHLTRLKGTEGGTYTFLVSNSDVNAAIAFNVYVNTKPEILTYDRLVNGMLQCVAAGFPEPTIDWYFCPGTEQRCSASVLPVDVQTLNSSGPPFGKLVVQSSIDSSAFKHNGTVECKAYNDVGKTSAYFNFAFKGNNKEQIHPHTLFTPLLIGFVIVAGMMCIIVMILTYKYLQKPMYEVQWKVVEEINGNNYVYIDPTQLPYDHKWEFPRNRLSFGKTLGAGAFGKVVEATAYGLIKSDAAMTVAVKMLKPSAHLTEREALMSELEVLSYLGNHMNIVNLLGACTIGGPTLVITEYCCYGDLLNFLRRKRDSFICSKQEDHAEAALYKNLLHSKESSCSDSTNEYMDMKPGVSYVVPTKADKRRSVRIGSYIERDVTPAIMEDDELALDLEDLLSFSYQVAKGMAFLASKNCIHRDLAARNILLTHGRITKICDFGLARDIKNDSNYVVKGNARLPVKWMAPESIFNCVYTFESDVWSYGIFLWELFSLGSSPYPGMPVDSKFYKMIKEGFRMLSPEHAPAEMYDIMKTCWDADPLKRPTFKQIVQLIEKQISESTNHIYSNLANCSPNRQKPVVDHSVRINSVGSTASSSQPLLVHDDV
Kind of experiment: GIST882 KIT Western Blot. In kind it is cell-based. The settings on record: 4 hours, read-out: pKIT suppression by western blot analysi GIST 882. As to the method:
GIST48, GIST430, and GIST882 cells were obtained from J. Fletcher (Brigham and Women's Hospital, Boston, Mass.). GIST T1 cells were obtained from B. Rubin (Cleveland Clinic, Cleveland, Ohio) and Professor Takahiro Taguchi (Kochi Medical School, Nankoku, Kochi, Japan). […] GIST430 cells were grown in Ham's F10 medium supplemented with 15% characterized fetal bovine serum (Invitrogen, Carlsbad, Calif.), 30 mg/L bovine pituitary extract (BD Biosciences, San Jose, Calif.), 0.5% Mito+ serum extender (BD Biosciences, San Jose, Calif.), 1 unit/mL penicillin G, 1 μg/ml streptomycin, and 0.29 mg/mL L-glutamine at 37° C., 5% CO2, 95% humidity. GIST T1 cells were grown in DMEM medium supplemented with 10% characterized fetal bovine serum (Invitrogen, Carlsbad, Calif.), 1 unit/mL penicillin G, 1 ng/ml streptomycin, and 0.29 mg/mL L-glutamine at 37° C., 5% CO2, and 95% humidity. Cells were allowed to expand until reaching 70-95% confluence at which point they were subcultured or harvested for assay use.
Two hundred fifty thousand cells were added per well in a 24-well tissue-culture treated plate. Cells were then incubated overnight at 37° C., 5% CO2, 95% humidity. Medium was aspirated, cells were washed with PBS, and serum-free RPMI1640 medium was added. A serial dilution of test compound was added to plates containing cells and plates were incubated for 4 hours at 37° C., 5% CO2, 95% humidity. Cells were washed with PBS, then lysed. Cell lysates were separated by SDS-PAGE and transferred to PVDF. Phospho-KIT (Tyr719) was detected using an antibody from Cell Signaling Technology (Beverly, Mass.), ECL Plus detection reagent (GE Healthcare, Piscataway, N.J.) and a Molecular Devices Storm 840 phosphorimager in fluorescence mode. Blots were stripped and probed for total KIT using an antibody from Santa Cruz Biotech (Santa Cruz, Calif.). IC50 values were calculated using Prism software (Graphpad, San Diego, Calif.).

Experiment [4] deals with T3, c-KIT D816V kinase (Seq ID no. 4) (Homo sapiens, UniProt P10721, D816V).
T3 construct: D816V c-KIT (residues T544-V976 with N-terminal GST fusion, 16 nM); purchased deCODE Biostructures
T3 sequence (P10721 544-976 D816V): as the sequence (P10721 544-976 D816H) above, with H273V counted along it
Kind of experiment: c-KIT D816V kinase Assay. In kind it is biochemical. To be noted: enzymatic assay, ATP 200 uM.

The target in experiment [5] is T4, c-KIT kinase (Seq ID no. 1) (Homo sapiens, UniProt P10721).
T4 construct: GST (N); TEV cleavage site (N); purchased deCODE Biostructures
T4 sequence (P10721 with tags, fused parts or gaps): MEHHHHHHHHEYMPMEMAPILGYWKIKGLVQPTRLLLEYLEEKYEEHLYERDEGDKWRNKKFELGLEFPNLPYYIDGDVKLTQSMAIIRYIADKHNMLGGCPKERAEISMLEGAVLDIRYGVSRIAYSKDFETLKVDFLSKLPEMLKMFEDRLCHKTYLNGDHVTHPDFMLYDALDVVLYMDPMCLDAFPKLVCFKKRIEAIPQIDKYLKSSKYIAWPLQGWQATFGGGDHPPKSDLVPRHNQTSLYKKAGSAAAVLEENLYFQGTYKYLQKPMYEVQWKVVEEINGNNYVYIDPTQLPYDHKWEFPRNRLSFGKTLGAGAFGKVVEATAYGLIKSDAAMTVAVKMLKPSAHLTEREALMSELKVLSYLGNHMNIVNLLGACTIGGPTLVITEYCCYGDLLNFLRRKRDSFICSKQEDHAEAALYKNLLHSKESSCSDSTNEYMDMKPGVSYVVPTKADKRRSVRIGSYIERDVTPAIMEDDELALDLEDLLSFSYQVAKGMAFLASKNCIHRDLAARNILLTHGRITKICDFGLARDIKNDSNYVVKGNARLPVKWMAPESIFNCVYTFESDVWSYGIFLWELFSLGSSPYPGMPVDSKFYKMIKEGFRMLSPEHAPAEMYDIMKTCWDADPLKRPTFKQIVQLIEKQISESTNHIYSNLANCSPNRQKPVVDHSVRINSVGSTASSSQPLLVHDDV
Briefly: c-KIT Kinase Assay (pyruvate kinase/lactate dehydrogenase coupled). It is filed as biochemical. To be noted: enzymatic assay, ATP 200 μM; read-out: KIT (wt).

The target in experiment [6] is T5, c-KIT V654A kinase (Seq ID no. 2) (Homo sapiens, UniProt P10721, V654A).
T5 construct: V654A c-Kit (residues T544-V976 with N-terminal GST fusion, 47 nM); purchased deCODE Biostructures
T5 sequence (P10721 544-976 V654A): as the sequence (P10721 544-976 D816H) above, with V111A, H273D counted along it
Kind of experiment: c-KIT V654A Kinase Assay. The settings on record: enzymatic assay, ATP 200 μM. In kind it is biochemical. On the procedure: In this assay, the oxidation of NADH (measured by decrease in absorbance at 340 nm) was continuously monitored spectrophotometrically. […] The inhibition reaction was started by mixing serial diluted test compound with the above reaction mixture. The absorption at 340 nm was monitored continuously for 6 hours at 30° C. on Synergy 2 plate reader (BioTech).
The protein construct was prepared by deCODE Biostructures using procedures known in the art. The construct contains residues T544-V976 of cKit, an N-terminal tag, a GST-fusion sequence and a TEV cleavage site. This construct is identical to Seq ID no.

Experiment [7] addresses T6, c-KIT T670I kinase (Seq ID no. 6) (Homo sapiens, UniProt P10721, T670I).
T6 construct: GST (N); TEV cleavage site (N); purchased deCODE Biostructures
Kind of experiment: c-KIT T670I Kinase Assay. In kind it is biochemical. The settings on record: enzymatic assay, ATP 200 uM.

Where only a bound is given, the exact number is not on record here.

T6 sequence (P10721 544-976 T670I): as the sequence (P10721 544-976 D816H) above, with T127I, H273D counted along it
Chain of Phospho-KIT (Tyr719) in GIST48 cells (P10721 whole entry V560D/D820A, form open): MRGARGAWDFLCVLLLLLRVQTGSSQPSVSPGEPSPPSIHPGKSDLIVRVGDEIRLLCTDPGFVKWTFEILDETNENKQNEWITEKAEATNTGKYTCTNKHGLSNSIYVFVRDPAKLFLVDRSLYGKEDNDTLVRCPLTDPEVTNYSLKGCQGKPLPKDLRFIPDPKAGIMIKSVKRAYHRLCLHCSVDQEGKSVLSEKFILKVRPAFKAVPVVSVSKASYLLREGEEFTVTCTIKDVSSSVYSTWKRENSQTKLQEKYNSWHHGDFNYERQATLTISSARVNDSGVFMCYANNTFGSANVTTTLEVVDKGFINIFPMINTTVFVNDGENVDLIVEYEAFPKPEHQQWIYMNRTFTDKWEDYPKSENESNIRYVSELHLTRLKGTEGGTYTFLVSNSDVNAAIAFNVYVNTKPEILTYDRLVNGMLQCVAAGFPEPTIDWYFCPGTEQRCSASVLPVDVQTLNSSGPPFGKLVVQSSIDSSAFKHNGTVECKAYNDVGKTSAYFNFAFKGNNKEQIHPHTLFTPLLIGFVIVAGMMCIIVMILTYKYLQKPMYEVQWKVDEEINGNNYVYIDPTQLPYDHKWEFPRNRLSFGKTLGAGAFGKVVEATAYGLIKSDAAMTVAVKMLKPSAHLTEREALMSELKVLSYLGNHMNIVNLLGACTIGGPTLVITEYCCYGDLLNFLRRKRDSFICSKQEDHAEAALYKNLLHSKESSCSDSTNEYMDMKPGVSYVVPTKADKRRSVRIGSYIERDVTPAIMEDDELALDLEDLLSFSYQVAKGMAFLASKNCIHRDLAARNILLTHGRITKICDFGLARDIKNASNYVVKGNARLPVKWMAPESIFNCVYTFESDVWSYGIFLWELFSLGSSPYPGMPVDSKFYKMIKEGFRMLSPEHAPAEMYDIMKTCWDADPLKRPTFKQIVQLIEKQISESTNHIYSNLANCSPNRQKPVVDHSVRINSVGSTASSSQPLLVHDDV

With `CCn1c(=O)c(-c2cc(NC(=O)Nc3cccc(CN4CCN(C)CC4)c3)c(F)cc2Cl)cc2cnc(NC)cc21` [Example 79, 1-(4-chloro-5-(1-ethyl-7-(methylamino)-2-oxo-1,2-dihydro-1,6-naphthyridin-3-yl)-2-fluorophenyl)-3-(3-((4-methylpiperazin-1-yl)methyl)phenyl)urea], the IC50 in experiment [1] was 10 to 100 nM; in experiment [2], 10 to 100 nM; in experiment [3], above 1000 nM; in experiment [4] it was 100 to 1000 nM; in experiment [5], below 10 nM; in experiment [6] it was 100 to 1000 nM. The IC50 in experiment [7] was 10 to 100 nM.

In the case of `CCn1c(=O)c(-c2cc(NC(=O)Nc3cc(F)cc(CN4CCN(C)CC4)c3)c(F)cc2Cl)cc2cnc(NC)cc21` [Example 88, 1-(4-chloro-5-(1-ethyl-7-(methylamino)-2-oxo-1,2-dihydro-1,6-naphthyridin-3-yl)-2-fluorophenyl)-3-(3-fluoro-5-((4-methylpiperazin-1-yl)methyl)phenyl)urea], the IC50 in experiment [1] was 10 to 100 nM; in experiment [2], 10 to 100 nM; in experiment [3], 100 to 1000 nM; in experiment [4], 100 to 1000 nM; in experiment [5] it was below 10 nM; in experiment [6], 10 to 100 nM. Moreover, the IC50 in experiment [7] is 10 to 100 nM.

As to `CCn1c(=O)c(-c2cc(NC(=O)Nc3ccccc3)c(F)cc2Cl)cc2cnc(N)cc21` [Example 21, 1-(5-(7-amino-1-ethyl-2-oxo-1,2-dihydro-1,6-naphthyridin-3-yl)-4-chloro-2-fluorophenyl)-3-phenylurea], the IC50 is 10 to 100 nM in experiment [1]; below 10 nM in experiment [2]; 10 to 100 nM in experiment [3]; 10 to 100 nM in experiment [4]; below 10 nM in experiment [5]; below 10 nM in experiment [6]. In addition, in experiment [7], the IC50 is below 10 nM.

The record behind these values is US8940756B2, “Dihydronaphthyridines and related compounds useful as kinase inhibitors for the treatment of proliferative diseases” (Deciphera Pharmaceuticals, Inc., priority 2012, dated 2015).
